Data as given in patent US10316049B2, “Tank-binding kinase inhibitor compounds” (Gilead Sciences, Inc., priority 2015, dated 2019).

Legend:
TBK1 = target: T1, TBK1 (Homo sapiens, UniProt Q9UHD2); assay: TR-FRET enzymatic activity assay, TBK1; format: biochemical; also: full length recombinant TBK1 at 2.5 nM
T1 construct: TBK1 and IKKε were expressed and purified as full length recombinant proteins; made in house
T1 sequence (Q9UHD2 1-729): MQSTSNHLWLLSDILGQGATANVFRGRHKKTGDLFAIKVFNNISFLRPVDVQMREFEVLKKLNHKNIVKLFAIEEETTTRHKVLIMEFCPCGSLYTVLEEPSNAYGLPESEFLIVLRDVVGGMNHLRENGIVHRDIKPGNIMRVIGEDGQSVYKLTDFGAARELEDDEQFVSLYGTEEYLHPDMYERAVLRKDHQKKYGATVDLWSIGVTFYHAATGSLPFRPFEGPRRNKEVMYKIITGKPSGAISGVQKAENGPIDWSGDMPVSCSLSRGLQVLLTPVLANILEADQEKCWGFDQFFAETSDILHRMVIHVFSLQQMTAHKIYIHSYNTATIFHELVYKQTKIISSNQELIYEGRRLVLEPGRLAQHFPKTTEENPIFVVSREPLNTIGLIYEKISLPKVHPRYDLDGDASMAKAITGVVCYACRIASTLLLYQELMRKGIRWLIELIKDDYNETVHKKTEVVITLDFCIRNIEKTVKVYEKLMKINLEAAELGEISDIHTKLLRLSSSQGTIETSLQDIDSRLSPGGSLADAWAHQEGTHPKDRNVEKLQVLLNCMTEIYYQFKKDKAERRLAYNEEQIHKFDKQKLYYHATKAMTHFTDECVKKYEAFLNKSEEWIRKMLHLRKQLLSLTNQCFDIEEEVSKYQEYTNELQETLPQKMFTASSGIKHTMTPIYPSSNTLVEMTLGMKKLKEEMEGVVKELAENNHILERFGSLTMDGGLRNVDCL
Method in brief: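 Full-length recombinant enzymes phosphorylated a biotinylated Ser/Thr peptide for 240 min at 25 °C, stopped with EDTA. Phosphopeptide detected by TR-FRET (streptavidin XL665, Eu-cryptate anti-phospho antibody). IC50 from four-parameter fits normalized to 1 μM staurosporine and DMSO controls, as geometric means of at least four determinations.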

IKKε = target: T2, IKKε (Homo sapiens, UniProt Q14164); assay: TR-FRET enzymatic activity assay, IKKε; format: biochemical; details: read-out: IKKϵ IC50; also: full length recombinant IKKε at 0.3 nM
T2 construct: TBK1 and IKKε were expressed and purified as full length recombinant proteins; made in house
T2 sequence (Q14164 1-716): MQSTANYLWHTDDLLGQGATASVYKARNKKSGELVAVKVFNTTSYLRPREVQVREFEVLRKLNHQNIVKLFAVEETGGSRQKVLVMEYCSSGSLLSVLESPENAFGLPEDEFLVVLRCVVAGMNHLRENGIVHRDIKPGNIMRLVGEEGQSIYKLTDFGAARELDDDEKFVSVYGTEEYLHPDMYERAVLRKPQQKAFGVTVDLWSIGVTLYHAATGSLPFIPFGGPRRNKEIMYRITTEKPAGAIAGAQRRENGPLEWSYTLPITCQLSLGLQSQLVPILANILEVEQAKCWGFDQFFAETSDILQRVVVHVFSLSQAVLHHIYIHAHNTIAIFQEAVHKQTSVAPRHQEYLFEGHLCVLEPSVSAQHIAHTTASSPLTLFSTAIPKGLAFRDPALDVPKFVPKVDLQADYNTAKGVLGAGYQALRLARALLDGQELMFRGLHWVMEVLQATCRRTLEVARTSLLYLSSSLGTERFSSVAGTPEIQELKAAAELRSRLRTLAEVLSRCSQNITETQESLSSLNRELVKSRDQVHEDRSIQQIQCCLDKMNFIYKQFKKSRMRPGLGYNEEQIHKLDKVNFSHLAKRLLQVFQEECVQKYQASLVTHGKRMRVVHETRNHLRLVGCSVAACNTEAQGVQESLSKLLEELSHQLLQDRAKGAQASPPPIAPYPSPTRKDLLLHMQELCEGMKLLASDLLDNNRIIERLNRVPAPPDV
Method in brief: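 Full-length recombinant IKKε phosphorylated a biotinylated Ser/Thr peptide for 240 min at 25 °C; EDTA stop. Phospho-peptide detected by TR-FRET with streptavidin-XL665 (125 nM) and Eu-cryptate anti-phospho antibody. Normalised to staurosporine and DMSO controls; IC50 from four-parameter fit, geometric mean of ≥4 runs.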

Row | IC50 (TBK1) [nM] | IC50 (IKKε) [nM] | SMILES
1 | 9.3 | 32.2 | N#Cc1cc(-c2cc(NC(=O)[C@@H]3C[C@H]3c3cccnc3)ncn2)ccc1O[C@H]1CCN(C(=O)CO)CC1(F)F [Example 129, (1,2-Trans)-N-(6-(3-cyano-4-(((S)-3,3-difluoro-1-(2-hydroxyacetyl)piperidin-4-yl)oxy)phenyl)pyrimidin-4-yl)-2-(pyridin-3-yl)cyclopropane-1-carboxamide]
2 | 47.6 | 167 | N#Cc1cc(-c2cc(NC(=O)C3CC3)ncn2)ccc1O[C@H]1CCN(C(=O)c2cnco2)C[C@H]1F [Example 33, N-(6-(3-cyano-4-(((3R,4S)-3-fluoro-1-(oxazole-5-carbonyl)piperidin-4-yl)oxy)phenyl)pyrimidin-4-yl)cyclopropanecarboxamide]
3 | 33.4 | 196 | N#Cc1cc(-c2ccnc(NC(=O)[C@@H]3C[C@H]3c3ccno3)c2)ccc1OC1CCOCC1 (relative stereo) [Example 102, trans-1,2-N-(4-(3-cyano-4-((tetrahydro-2H-pyran-4-yl)oxy)phenyl)pyridin-2-yl)-2-(isoxazol-5-yl)cyclopropane-1-carboxamide]
